Data set [1] addresses PDE10A (Homo sapiens, UniProt Q9Y233). Briefly: PDE enzymatic inhibition assay (HTRF cAMP kit). It is filed as biochemical. Conditions: recombinant PDE10, 20 nM substrate, 60 minutes at 29° C. The method, then:
Recombinant PDE proteins were used in in vitro enzymatic reaction for measurement of PDE activity. […] The enzymatic activity of PDEs was determined by cAMP measurement kit from CisBio (IBA) using HTRF technology. The PDE enzymatic reaction was carried out in assay buffer (20 mM Tris-HCl pH7.5, 10 mM MgCl2, 0.1% bovine serum albumin) containing enzyme and substrate. The PDE enzymes concentration ranged from 10 pM-250 pM, depending on each enzyme's specific activity. […] The inhibitory effect of compound was determined by incubating various concentration of inhibitor in the enzymatic assay. […] Next, the compound at varying concentration was mixed with PDE enzyme. The reaction was initiated by addition of cyclic nucleotide substrate, and incubated for 60 minutes at 29° C. The reaction was stopped by addition of lysis buffer from assay kit. The cAMP-d2 and anti-cAMP cryptate in the lysis buffer detected the level of cAMP left from the PDE hydrolysis reaction. […] Thus, IC50 value of inhibitor can be obtained by plotting inhibitor concentration against PDE activity at that concentration.

A short description of data set [2]: Human hepatocyte half-life. It is filed as in vitro ADME. As to conditions: for half-life: hepatocytes, human (H), read-out: Hepatocyte T1/2.
A short description of data set [3]: Rat PK (0.05 mg/kg, iv), free brain concentration and free B/P. It is filed as in vivo.
Data set [4] has as its target P-gp (Homo sapiens (Human), UniProt P08183). Briefly: MDCK-MDR1 assay, Efflux Ratio (P-gp). Type of data set: in vitro ADME. As to conditions: dog; MDCK-MDR1 cells.
The nature of data set [5]: Monkey microsome half-life. It is filed as in vitro ADME. As to conditions: monkey microsomes; read-out: Monkey Microsome T1/2.
Data set [6] in a line: Rat hepatocyte half-life. As to conditions: hepatocytes; rat (R); read-out: Hepatocyte T1/2. It is filed as in vitro ADME.
Data set [7] in a line: log D determined by shake flask method. Type of data set: physicochemical. As to conditions: read-out: SF log D.
Data set [8] has as its system rats. As to conditions: cited from earlier work.
The subject of data set [9] is rats. As to conditions: cited from earlier work. The source holds these as a separate data set.
In data set [10] the test system is rats. As to conditions: cited from earlier work. The source holds these as a separate data set.

Sequence of PDE10A (Q9Y233 whole entry, looked up): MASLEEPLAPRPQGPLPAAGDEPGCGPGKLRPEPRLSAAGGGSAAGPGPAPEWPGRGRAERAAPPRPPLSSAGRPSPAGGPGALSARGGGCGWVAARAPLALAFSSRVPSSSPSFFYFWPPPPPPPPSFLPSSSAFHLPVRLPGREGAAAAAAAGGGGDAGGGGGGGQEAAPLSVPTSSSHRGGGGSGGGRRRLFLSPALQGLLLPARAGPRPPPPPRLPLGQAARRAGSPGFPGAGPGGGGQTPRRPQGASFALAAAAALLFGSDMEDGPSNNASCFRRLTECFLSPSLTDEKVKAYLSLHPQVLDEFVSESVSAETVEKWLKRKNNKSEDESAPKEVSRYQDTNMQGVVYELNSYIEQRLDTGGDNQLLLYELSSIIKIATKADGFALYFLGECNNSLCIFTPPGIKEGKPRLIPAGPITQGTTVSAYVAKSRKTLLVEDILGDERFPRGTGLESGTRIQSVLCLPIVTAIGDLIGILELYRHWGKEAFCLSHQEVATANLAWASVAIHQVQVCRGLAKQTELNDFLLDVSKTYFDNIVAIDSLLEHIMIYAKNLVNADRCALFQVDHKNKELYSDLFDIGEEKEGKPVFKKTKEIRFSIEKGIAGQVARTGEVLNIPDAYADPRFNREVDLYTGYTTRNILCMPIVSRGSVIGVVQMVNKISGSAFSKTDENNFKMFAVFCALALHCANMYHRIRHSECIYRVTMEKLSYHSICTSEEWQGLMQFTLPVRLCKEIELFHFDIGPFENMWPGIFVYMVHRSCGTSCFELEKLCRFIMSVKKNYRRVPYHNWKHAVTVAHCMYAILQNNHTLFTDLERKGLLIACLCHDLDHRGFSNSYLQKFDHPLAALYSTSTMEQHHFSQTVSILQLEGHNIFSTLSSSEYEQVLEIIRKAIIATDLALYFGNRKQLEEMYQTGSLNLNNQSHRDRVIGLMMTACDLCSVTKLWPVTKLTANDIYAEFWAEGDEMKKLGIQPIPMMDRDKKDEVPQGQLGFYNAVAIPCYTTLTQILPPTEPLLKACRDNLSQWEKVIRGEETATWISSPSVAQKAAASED
Sequence of P-gp (P08183 whole entry): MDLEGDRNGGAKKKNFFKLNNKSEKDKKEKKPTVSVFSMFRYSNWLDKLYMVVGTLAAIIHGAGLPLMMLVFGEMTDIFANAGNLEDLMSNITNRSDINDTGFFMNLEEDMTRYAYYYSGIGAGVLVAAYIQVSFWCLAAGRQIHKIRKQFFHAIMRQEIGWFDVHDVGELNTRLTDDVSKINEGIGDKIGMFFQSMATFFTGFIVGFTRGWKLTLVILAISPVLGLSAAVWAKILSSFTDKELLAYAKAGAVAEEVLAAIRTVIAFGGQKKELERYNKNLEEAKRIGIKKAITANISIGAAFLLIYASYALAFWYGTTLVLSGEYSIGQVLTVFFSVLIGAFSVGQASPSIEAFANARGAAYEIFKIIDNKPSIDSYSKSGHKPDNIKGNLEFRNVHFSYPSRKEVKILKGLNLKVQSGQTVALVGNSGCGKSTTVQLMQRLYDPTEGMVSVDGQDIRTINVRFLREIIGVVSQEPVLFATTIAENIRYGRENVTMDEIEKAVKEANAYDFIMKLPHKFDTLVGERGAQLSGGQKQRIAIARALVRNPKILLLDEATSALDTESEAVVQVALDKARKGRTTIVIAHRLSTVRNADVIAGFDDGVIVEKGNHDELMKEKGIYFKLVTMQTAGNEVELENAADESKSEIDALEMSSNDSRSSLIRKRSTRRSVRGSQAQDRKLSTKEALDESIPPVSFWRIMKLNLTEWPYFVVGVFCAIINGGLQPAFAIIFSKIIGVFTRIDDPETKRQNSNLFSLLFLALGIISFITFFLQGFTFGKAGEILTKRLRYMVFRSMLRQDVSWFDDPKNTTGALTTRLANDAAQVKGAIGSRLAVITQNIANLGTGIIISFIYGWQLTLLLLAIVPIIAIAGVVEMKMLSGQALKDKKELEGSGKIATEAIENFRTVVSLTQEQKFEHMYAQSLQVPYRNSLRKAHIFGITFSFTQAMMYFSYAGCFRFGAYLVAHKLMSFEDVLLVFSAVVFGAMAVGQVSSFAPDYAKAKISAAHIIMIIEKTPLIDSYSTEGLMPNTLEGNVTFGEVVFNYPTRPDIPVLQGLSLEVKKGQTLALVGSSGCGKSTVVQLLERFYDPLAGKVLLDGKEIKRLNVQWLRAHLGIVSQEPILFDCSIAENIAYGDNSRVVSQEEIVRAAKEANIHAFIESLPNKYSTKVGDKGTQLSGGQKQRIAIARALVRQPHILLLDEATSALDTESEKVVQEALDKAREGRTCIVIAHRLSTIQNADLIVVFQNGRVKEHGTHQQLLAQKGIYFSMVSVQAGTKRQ

Regarding `Cn1cc(-c2ccncc2)c(-c2ccc(OCc3ccc4ncccc4n3)cc2)n1` [Example 1, 2-((4-(1-methyl-4-(pyridin-4-yl)-1H-pyrazol-3-yl)phenoxy)methyl)-1,5-naphthyridine], the IC50 in data set [1] came to 1.05 nM.

In the case of `FCCn1cc(-c2ccncc2)c(-c2ccc(OCc3ccc4ncccc4n3)cc2)n1` [Example 2, 2-((4-(1-(2-fluoroethyl)-4-(pyridin-4-yl)-1H-pyrazol-3-yl)phenoxy)methyl)-1,5-naphthyridine], the values for the half-life in data set [2], in data set [5] and in data set [6] were 79 min, 24 min and 12 min, respectively. Besides, the “human hepatocyte half-life compared with MP-10, JNJ-41510417 and Janssen B-3” value in data set [2] (human Hepatocyte T1/2) is “significantly longer human hepatocyte half-lives”. For the same compound, the entries for the “Free B/P (ratio of free brain concentration divided by free plasma concentration)” value in data set [3] (3 min after dose) and in [3] (5 min after dose) were 0.20 and 0.13, respectively. In addition, the figures for the “Free [brain]” value in data set [3] (3 min after dose) and in [3] (5 min after dose) were 0.692 ng/g and 0.184 ng/g, respectively. For the same compound, the efflux ratio in [4] was 1.95. The IC50 in data set [1] amounted to 0.2 nM. In addition, the logD in data set [7] came out at 3.71.

Turning to `FCCn1cc(-c2ccncc2)c(-c2ccc(OCc3nc4ccccc4o3)cc2)n1` [Example 3, 2-((4-(1-(2-fluoroethyl)-4-(pyridin-4-yl)-1H-pyrazol-3-yl)phenoxy)methyl)benzo[d]oxazole], in [1], the 50% inhibitory concentration (IC50) amounted to 4.7 nM.

Turning to `Cn1cc(-c2ccncc2)c(-c2ccc(OCc3nc4ccccc4c(=O)n3C)cc2)n1` [Example 4, 3-methyl-2-((4-(1-methyl-4-(pyridin-4-yl)-1H-pyrazol-3-yl)phenoxy)methyl)quinazolin-4(3H)-one], the IC50 in data set [1] worked out at 2 nM.

`FCCn1cc(-c2ccncc2)c(-c2ccc(OCc3ncc4ccccc4n3)cc2)n1` [Example 9, 2-((4-(1-(2-fluoroethyl)-4-(pyridin-4-yl)-1H-pyrazol-3-yl)phenoxy)methyl)quinazoline]: the IC50 in data set [1] is 0.18 nM.

For the compound `FCCn1cc(-c2ccncc2)c(-c2ccc(OCc3ccc4ccccc4n3)cc2)n1` [JNJ-41510417, reference compound], the half-inhibitory concentration (IC50) in [1] is 0.63 nM.

Regarding `Cc1cnc(COc2ccc(-c3nn(CCF)cc3-c3ccncc3)cc2)c(C)c1` [Janssen B-3, reference compound], the IC50 in data set [1] came to 0.98 nM.

On to `Cn1cc(-c2ccncc2)c(-c2ccc(OCc3ccc4ccccc4n3)cc2)n1` [MP-10, reference compound], for which the half-life came out at 54.9 min in data set [2], 7 min in [5] and 13 min in [6]. Also, the “Free [brain]” value in [3] (3 min after dose) is 0.054 ng/g; in data set [3] (5 min after dose) it was 0.098 ng/g. The logD in [7] worked out at 4.28.

On to `COc1ccc(Cc2nccc3cc(OC)c(OC)cc23)cc1OC` [Papaverine, papaverine], for which, in [8] (alone), the “catalepsy on its own” value is “did not cause catalepsy on its own”. Further, in data set [8] (with haloperidol), the “effect on haloperidol-induced catalepsy” value is “potentiated the cataleptic effect”. Besides, in data set [9], the “reduction of amphetamine-induced hyperactivity” value is given as “insignificant”. Also, in data set [10], the PCP-induced hyperactivity result is “reduced hyperactivity”.

The record behind these values is US9138494B2, “Radiolabeled PDE10A ligands” (AbbVie Inc., priority 2011, dated 2015).
